Test results as given in the supplement of paper PMC10331698.
± gives the standard deviation of the averaged measurements.

Experiments:
Test in all cases: level (log10 ratio to DMSO vehicle control); higher = higher biomarker level / cell amount than vehicle control
[1] = compound: OCCCCC(F)(F)C(F)(F)C(F)(F)C(F)(F)F [4:4 Fluorotelomer alcohol]; conditions: in DMSO
Procedure: (§1)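 BioMAP Diversity Plus panel of 12 human primary cell co-culture systems (3C, 4H, LPS, SAg, BT, BF4T, BE3C, CASM3C, HDF3CGF, KF3CT, MyoF, Mphg). Compounds were added 1 h before stimulation and left for 24 h (MyoF 48 h; BT 72 h for soluble read-outs or 6 d for IgG). Biomarkers were read by ELISA, cytotoxicity by SRB, PBMC viability and proliferation by Alamar Blue. Each well value was divided by the mean of 8 DMSO control wells on the same plate and log10 transformed; duplicate blinded samples were tested at 4 concentrations.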

[2] = compound: O=C(O)C(F)(F)C(F)(F)C(=O)O [Tetrafluorosuccinic acid]; conditions: in DMSO
Procedure: as §1

[3] = compound: CN(Cc1cnc2nc(N)nc(N)c2n1)c1ccc(C(=O)N[C@@H](CCC(=O)O)C(=O)O)cc1 [Methotrexate]; conditions: in DMSO
Procedure: as §1

[4] = compound: OCCC(F)(F)C(F)(F)C(F)(F)C(F)(F)C(F)(F)C(F)(F)C(F)(F)C(F)(F)F [8:2 Fluorotelomer alcohol]; conditions: 6700 nM; in DMSO
Procedure: as §1

[5] = compound: O=C(O)C(F)(F)C(F)(F)C(F)(F)C(F)(F)C(F)(F)C(F)(F)C(F)(F)F [Perfluorooctanoic acid]; conditions: in DMSO
Procedure: as §1

[6] = compound: FC(F)(F)COC(OCC(F)(F)F)OCC(F)(F)F [tris(Trifluoroethoxy)methane]; conditions: in DMSO
Procedure: as §1

[7] = compound: OCC(F)(F)C(F)(F)C(F)(F)C(F)(F)C(F)(F)C(F)(F)C(F)(F)C(F)(F)CO [1H,1H,10H,10H-Perfluorodecane-1,10-diol]; conditions: in DMSO
Procedure: as §1

Row | Test System | level (log10) ([1]; 6700 nM) | level (log10) ([1]; 20000 nM) | level (log10) ([1]; 60000 nM) | level (log10) ([2]; 6700 nM) | level (log10) ([2]; 20000 nM) | level (log10) ([2]; 60000 nM) | level (log10) ([3]; 1500 nM) | level (log10) ([3]; 4400 nM) | level (log10) ([3]; 13000 nM) | level (log10) ([3]; 40000 nM) | level (log10) [4] | level (log10) ([5]; 6700 nM) | level (log10) ([5]; 20000 nM) | level (log10) ([5]; 60000 nM) | level (log10) ([6]; 6700 nM) | level (log10) ([6]; 20000 nM) | level (log10) ([6]; 60000 nM) | level (log10) ([7]; 6700 nM) | level (log10) ([7]; 20000 nM) | level (log10) ([7]; 60000 nM)
1 | BE3C:MMP-1 | 0.0005 ± 0.03 | 0.006 ± 0.02 | 0.022 ± 0.05 | -0.0025 ± 0.011 | -0.0125 ± 0.0078 | 0.032 ± 0.038 | -0.028 ± 0.024 | -0.011 ± 0.044 | 0.034 ± 0.016 | 0.031 ± 0.014 | 0.0275 ± 0.021 | -0.0085 ± 0.012 | 0.044 | 0.226 ± 0.035 | 0.004 ± 0.059 | 0.004 ± 0.025 | 0.01 ± 0.0099 | 0.054 ± 0.0071 | 0.103 ± 0.042 | 0.137
2 | HDF3CGF:CXCL9/MIG | -0.0045 ± 0.0092 | 0.0035 ± 0.0092 | 0.006 ± 0.02 | -0.0285 ± 0.029 | -0.039 ± 0.065 | -0.06 ± 0.086 | 0.002 ± 0.045 | -0.003 ± 0.023 | -0.0205 ± 0.036 | -0.0165 ± 0.057 | 0.004 ± 0.0028 | 0.001 ± 0.0057 | -0.0245 ± 0.036 | -0.0095 ± 0.028 | 0.007 ± 0.0099 | 0.002 ± 0.0071 | -0.017 ± 0.018 | 0.012 ± 0.013 | -0.037 ± 0.014 | -0.789
3 | HDF3CGF:EGFR | -0.0155 ± 0.0035 | -0.0105 ± 0.0035 | 0.0195 ± 0.05 | -0.0065 ± 0.033 | -0.008 ± 0.0028 | 0.029 ± 0.038 | -0.0035 ± 0.018 | -0.008 ± 0.0099 | -0.011 ± 0.028 | -0.021 ± 0.027 | 0.037 ± 0.0085 | -0.065 ± 0.086 | -0.086 ± 0.028 | -0.0965 ± 0.044 | -0.0265 ± 0.015 | -0.016 ± 0.054 | -0.016 ± 0.0085 | -0.0015 ± 0.015 | 0.003 ± 0.023 | -0.224
4 | BE3C:Keratin 8/18 | -0.0025 ± 0.0035 | -0.012 ± 0.0042 | 0.0055 ± 0.015 | 0.0225 ± 0.012 | 0.009 ± 0.013 | 0.0165 ± 0.00071 | -0.0105 ± 0.047 | -0.035 ± 0.042 | -0.022 ± 0.057 | -0.024 ± 0.025 | -0.0185 ± 0.012 | -0.0145 ± 0.0064 | -0.01 ± 0.0014 | 0.0065 ± 0.028 | -0.0035 ± 0.019 | -0.0215 ± 0.021 | 0.01 ± 0.0057 | -0.034 ± 0.0085 | -0.027 ± 0.0085 | -0.016
